How the values were obtained:
TCD in an animal model = conditions: cited from earlier work
GABAA Receptors = conditions: Kurata et al., Mol Pharmacol. 1999, cited from earlier work
[1] = cited from earlier work
[2] = system: Spontaneous Brain Activity in Healthy Adults; experiment: MEG recordings of spontaneous activity, spectral analysis and ICA localization before and after self-administration of 1-octanol; format: in vivo, human; conditions: all subjects, five times after octanol (grand mean, s.e.m), FIG. 2
healthy adults = experiment: Seven-scale questionnaire before and after octanol administration; format: in vivo, human; conditions: 0.1 mg/kg, questionnaire before, 5-10 min and 120 min after
Experimental: (§1) The database comprises 29 healthy adults from 25-52 years of age (12 women and 17 men).
(§2) Octanol is a straight chain fatty alcohol with 8 carbon atoms CH3(CH2)7OH, and was formulated in an oral mucosal delivery format with appropriate organoleptic characteristics. It was self-administered at 0.1 mg/kg. Participants were instructed to use the spray as they would a breathe spray.
A seven-scale questionnaire was used before and at 5-10 minutes and 120 minutes, respectively, after octanol administration to examine the level of relaxation, concentration, worry, sleepiness, stress, pain and the octanol taste.

[3] = system: patients with essential tremor; conditions: cited from earlier work
[4] = system: T-type (Cav3.1) calcium channels; conditions: in vitro; cited from earlier work
harmaline-induced tremor = conditions: cited from earlier work
[5] = system: Spontaneous Brain Activity in Healthy Adults; experiment: MEG recordings of spontaneous activity, spectral analysis and ICA localization before and after self-administration of 1-octanol; format: in vivo, human
Experimental: as §1
Spontaneous activity was recorded using a 275 channel (CTF) MEG. Six 7-min recordings were made with the eyes closed. One recording was made before self-administration of 1-Octanol. The others were made at 15, 30, 60, 90 and 120 min after.
A multi-taper approach, which provides reduced-variance calculations of frequency, was used to generate frequency spectra from each set of recordings. Changes in the power spectrum after octanol was determined by first calculating the mean spectra energy (MSE) in 2 Hz frequency bands starting at 2.5 Hz. Logarithmic transformation was applied to the power data and then the mean spectral energy (MSE) was calculated for each band before and after octanol administration. The difference in MSE before and after octanol was then calculated for each participant and the grand mean calculated (FIG. 3).
as §2
Independent component analysis (ICA) was carried out on the sensor data using the Infomax EEGLab algorithm. The magnetic field described by the ICs was localized onto a volumetric source space constructed from a population-averaged MRI using a recursive weighted minimum norm algorithm.

saliva-amylase = target: T1, saliva-amylase (Homo sapiens, UniProt P0DUB6); conditions: cited from earlier work
T1 sequence (P0DUB6 16-511): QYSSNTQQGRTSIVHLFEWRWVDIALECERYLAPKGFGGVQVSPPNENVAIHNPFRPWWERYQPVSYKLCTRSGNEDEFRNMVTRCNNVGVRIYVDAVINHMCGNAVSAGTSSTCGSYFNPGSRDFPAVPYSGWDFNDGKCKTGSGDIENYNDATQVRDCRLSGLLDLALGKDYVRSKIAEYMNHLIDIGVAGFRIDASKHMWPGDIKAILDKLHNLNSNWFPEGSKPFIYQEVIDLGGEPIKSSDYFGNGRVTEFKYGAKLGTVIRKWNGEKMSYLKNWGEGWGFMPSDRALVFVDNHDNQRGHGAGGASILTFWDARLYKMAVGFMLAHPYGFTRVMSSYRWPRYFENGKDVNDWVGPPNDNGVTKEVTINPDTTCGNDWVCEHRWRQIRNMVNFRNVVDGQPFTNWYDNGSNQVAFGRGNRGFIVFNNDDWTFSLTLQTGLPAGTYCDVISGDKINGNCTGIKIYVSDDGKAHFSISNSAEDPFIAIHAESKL

[6] = example subject with low frequency peaks, FIG. 5
[7] = healthy adults, 0.1 mg/kg self-administered oral mucosal spray, MEG

With `CCCCCCCCO` [Example 1-octanol, 1-octanol] as the molecule, how does the “effect in TCD in an animal model” value (TCD in an animal model) read?
Its value is “effective”.

And the “low doses at which octanol is a slight allosteric potentiator of GABA” value (GABAA Receptors)?
The value was 1-10 μm.

And the “action on GABA at a higher dose” value (GABAA Receptors; higher dose)?
Its value is “allosteric inhibitor”.

And the accepted daily intake ([1]; as flavoring agent in food and cosmetics, FDA and Council of Europe)?
Its accepted daily intake is 1 mg/kg.

What about the liver toxicity ([1]; higher dosages) of the same molecule?
Its liver toxicity is “associated with liver toxicity”.

And the “Difference in Mean Spectral Energy, alpha range” value [2]?
Its value is “clear increase”.

And the “Difference in Mean Spectral Energy, delta range” value [2]?
Its value is “decrease”.

And the “general, self-reported measures of wellness” value (healthy adults)?
Its value is “no effect”.

What about the “tremor in patients with essential tremor” value [3] of the same molecule?
The value was “reduce tremor”.

What about the inferior olivary oscillations [4] of the same molecule?
The inferior olivary oscillations was “reduces”.

And the “low threshold calcium currents in thalamic and inferior olivary neurons” value [4]?
Its value is “reversibly reduces”.

And the harmaline-induced tremor (harmaline-induced tremor)?
Its harmaline-induced tremor is “prevents”.

What about the “number of ICA components in the alpha range” value ([5]; after octanol administration, FIG. 6) of the same molecule?
Its value is “increased”.

What about the “Localization of the alpha rhythms to the posterior part of the brain (ICA)” value ([5]; before and 90 minutes after octanol, FIG. 4) of the same molecule?
Its value is “not affected”.

What about the “alpha range peak (8.5-10.4 Hz)” value [5, 6] of the same molecule?
The value was “increased”.

And the “delta range peaks (2.5-4.4 Hz)” value [5, 6]?
The value was “reduced”.

And the “abnormal, delta range activity” value [5, 7]?
The value was “reducing”.

What about the “normal, alpha range activity” value [5, 7] of the same molecule?
Its value is “increases”.

And the beta range activity ([5]; healthy subjects, MEG)?
Its beta range activity is “did not promote a significant increase”.

What about the “lower alpha band power” value ([5]; healthy subjects, MEG) of the same molecule?
The value was “significantly increased”.

What about the “power spectra in the low alpha range” value ([5]; most of the subjects, FIG. 1) of the same molecule?
Its value is “increase and broadening”.

What about the “power at lower frequencies” value ([5]; most subjects, FIG. 3) of the same molecule?
The value was “no change”.

And the low frequency peaks ([5]; some subjects, FIG. 7)?
Its low frequency peaks is “not affected”.

What about the gamma range activity ([5]; some subjects, MEG) of the same molecule?
The gamma range activity was “increase”.

And the “higher theta range activity” value ([5]; some subjects, MEG)?
The value was “tendency for potentiating”.

What about the “ICA components with delta range peaks” value ([5]; two hours after octanol administration, FIG. 6) of the same molecule?
The value was “no components”.

With `OC[C@H]1O[C@@H]2O[C@H]3[C@H](O)[C@@H](O)[C@@H](O[C@H]4[C@H](O)[C@@H](O)[C@@H](O[C@H]5[C@H](O)[C@@H](O)[C@@H](O[C@H]6[C@H](O)[C@@H](O)[C@@H](O[C@H]7[C@H](O)[C@@H](O)[C@@H](O[C@H]8[C@H](O)[C@@H](O)[C@@H](O[C@H]9[C@H](O)[C@@H](O)[C@@H](O[C@H]1[C@H](O)[C@H]2O)O[C@@H]9CO)O[C@@H]8CO)O[C@@H]7CO)O[C@@H]6CO)O[C@@H]5CO)O[C@@H]4CO)O[C@@H]3CO` [γ-CD, γ-cyclodextrin] as the molecule, how does the “susceptibility to saliva-amylase degradation” value (saliva-amylase) read?
The value was “highly susceptible”.

From patent US20130101527A1, “METHODS, COMPOUNDS AND PHARMACEUTICAL COMPOSITIONS FOR TREATING NEUROLOGICAL DISORDERS” (priority 2011, published 2013)
